Measured values: ChEMBL document CHEMBL4422610, “HDAC as onco target: Reviewing the synthetic approaches with SAR study of their inhibitors” (Eur J Med Chem, 2018)
Each block holds one molecule with its values, some of them ahead of it.

Columns and labels:
[1] = biological target: T1, Histone deacetylase 8 (Homo sapiens, UniProt Q9BY41); assay: Inhibition of human HDAC8 using fluorogenic HDAC substrate
T1 sequence (Q9BY41 whole entry): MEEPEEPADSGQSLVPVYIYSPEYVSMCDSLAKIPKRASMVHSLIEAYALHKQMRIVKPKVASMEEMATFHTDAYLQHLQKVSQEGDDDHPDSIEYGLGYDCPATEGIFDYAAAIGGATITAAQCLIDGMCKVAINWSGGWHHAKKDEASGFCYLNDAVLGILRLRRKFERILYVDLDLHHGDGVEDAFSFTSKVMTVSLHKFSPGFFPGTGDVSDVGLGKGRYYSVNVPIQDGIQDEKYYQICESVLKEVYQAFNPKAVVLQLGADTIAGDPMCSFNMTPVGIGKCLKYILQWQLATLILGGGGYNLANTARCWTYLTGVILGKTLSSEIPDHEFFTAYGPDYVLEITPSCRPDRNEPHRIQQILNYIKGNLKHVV

[2] = biological target: T2, Polyamine deacetylase HDAC10 (Homo sapiens, UniProt Q969S8); assay: Inhibition of human HDAC10 using fluorogenic HDAC substrate
T2 sequence (Q969S8 whole entry): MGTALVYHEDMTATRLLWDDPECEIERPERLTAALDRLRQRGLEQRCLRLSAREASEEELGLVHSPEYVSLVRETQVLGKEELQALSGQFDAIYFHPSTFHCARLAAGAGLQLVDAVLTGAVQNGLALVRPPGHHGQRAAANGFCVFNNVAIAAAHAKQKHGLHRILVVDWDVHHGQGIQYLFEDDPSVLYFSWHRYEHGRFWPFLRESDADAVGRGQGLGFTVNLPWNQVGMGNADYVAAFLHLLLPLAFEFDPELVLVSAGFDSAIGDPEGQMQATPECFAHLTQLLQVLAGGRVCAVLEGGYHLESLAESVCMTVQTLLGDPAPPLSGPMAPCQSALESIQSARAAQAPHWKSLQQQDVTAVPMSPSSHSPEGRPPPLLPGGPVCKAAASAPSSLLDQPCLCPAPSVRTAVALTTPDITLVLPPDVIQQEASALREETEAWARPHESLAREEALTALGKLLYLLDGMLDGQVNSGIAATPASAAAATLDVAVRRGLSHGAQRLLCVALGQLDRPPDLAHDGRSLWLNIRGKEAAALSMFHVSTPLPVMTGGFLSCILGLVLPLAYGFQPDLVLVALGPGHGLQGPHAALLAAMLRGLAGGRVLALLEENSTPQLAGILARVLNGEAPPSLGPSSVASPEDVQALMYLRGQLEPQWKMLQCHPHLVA

[3] = biological target: T3, Histone deacetylase 11 (Homo sapiens, UniProt Q96DB2); assay: Inhibition of human HDAC11 using fluorogenic HDAC substrate
T3 sequence (Q96DB2 whole entry): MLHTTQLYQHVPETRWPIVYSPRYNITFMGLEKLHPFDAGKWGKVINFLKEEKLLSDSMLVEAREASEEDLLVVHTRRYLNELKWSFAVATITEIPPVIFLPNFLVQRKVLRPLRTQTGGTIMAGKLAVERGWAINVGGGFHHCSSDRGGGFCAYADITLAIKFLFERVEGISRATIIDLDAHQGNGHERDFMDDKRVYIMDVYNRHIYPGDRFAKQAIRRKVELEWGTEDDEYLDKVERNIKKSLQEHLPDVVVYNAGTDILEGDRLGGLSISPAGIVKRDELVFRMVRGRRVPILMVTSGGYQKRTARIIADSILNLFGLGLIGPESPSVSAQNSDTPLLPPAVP

[4] = biological target: T4, Protein deacetylase HDAC6 (Homo sapiens, UniProt Q9UBN7); assay: Inhibition of human HDAC6 using fluorogenic HDAC substrate
T4 sequence (Q9UBN7 whole entry): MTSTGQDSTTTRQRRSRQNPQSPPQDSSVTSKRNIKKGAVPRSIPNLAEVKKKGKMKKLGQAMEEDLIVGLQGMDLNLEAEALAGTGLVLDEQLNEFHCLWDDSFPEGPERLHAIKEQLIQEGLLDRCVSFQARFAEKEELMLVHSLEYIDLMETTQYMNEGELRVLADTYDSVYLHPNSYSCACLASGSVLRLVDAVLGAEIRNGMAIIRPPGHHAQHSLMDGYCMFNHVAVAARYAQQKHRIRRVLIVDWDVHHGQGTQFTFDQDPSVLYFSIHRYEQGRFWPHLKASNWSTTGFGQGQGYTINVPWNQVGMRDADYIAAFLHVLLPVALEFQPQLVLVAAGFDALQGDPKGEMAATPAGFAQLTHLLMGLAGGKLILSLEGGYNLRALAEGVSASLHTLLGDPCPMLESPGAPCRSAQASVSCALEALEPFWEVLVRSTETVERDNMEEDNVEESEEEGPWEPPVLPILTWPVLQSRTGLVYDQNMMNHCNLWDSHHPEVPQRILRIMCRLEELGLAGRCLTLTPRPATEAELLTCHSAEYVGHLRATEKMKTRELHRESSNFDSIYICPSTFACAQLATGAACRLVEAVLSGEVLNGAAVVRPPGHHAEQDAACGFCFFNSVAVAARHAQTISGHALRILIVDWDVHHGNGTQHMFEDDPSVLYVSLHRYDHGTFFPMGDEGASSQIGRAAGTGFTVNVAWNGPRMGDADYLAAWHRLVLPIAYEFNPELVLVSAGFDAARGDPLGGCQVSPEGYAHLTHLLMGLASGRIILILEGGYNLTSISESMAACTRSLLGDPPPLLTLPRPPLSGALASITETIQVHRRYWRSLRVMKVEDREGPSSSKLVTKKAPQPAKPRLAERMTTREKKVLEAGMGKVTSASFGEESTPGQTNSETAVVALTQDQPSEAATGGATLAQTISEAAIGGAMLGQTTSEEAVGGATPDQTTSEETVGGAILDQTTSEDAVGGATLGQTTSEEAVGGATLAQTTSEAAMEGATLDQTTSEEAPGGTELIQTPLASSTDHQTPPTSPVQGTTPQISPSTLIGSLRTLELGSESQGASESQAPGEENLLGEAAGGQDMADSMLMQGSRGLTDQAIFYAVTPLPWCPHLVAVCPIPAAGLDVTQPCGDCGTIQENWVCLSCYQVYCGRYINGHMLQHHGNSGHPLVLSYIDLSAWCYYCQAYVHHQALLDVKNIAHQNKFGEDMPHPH

[5] = biological target: Histone deacetylase 9 (Homo sapiens, UniProt Q9UKV0); assay: Inhibition of human HDAC9 using fluorogenic HDAC substrate
[6] = biological target: T5, Histone deacetylase 7 (Homo sapiens, UniProt Q8WUI4); assay: Inhibition of human HDAC7 using fluorogenic HDAC substrate
T5 sequence (Q8WUI4 whole entry): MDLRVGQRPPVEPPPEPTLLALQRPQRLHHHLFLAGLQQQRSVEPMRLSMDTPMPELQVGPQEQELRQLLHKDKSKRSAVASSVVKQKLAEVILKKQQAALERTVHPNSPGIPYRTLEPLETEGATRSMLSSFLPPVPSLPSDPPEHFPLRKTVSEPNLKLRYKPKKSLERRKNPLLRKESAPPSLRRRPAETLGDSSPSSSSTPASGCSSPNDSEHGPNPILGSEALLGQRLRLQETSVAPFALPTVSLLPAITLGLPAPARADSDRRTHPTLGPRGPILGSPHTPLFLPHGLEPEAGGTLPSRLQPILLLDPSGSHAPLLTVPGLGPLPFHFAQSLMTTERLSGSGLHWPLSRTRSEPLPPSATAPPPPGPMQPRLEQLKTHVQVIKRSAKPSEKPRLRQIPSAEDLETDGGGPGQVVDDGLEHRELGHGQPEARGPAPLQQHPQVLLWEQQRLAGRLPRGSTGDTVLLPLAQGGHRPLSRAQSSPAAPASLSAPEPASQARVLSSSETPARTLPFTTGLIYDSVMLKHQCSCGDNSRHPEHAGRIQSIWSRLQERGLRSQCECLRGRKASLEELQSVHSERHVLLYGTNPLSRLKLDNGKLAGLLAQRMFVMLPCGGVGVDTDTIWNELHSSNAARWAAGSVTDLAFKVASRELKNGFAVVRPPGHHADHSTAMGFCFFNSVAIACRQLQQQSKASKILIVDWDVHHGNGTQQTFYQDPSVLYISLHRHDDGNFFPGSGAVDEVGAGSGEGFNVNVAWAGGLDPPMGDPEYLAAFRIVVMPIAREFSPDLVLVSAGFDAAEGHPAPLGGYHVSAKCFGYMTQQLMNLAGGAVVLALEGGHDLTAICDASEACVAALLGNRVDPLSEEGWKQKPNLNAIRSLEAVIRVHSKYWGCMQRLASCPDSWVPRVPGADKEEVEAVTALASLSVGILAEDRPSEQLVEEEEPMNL

[7] = biological target: Histone deacetylase 5 (Homo sapiens, UniProt Q9UQL6); assay: Inhibition of human HDAC5 using fluorogenic HDAC substrate
[8] = biological target: Histone deacetylase 4 (Homo sapiens, UniProt P56524); assay: Inhibition of human HDAC4 using fluorogenic HDAC substrate
[9] = biological target: T6, Histone deacetylase 1 (Homo sapiens, UniProt Q13547); assay: Inhibition of human HDAC1 using fluorogenic HDAC substrate
[10] = biological target: Histone deacetylase; assay type: cell-based, Homo sapiens; conditions: hela
[11] = biological target: T6, Histone deacetylase 1; assay: Inhibition of recombinant human GST-fused HDAC1 expressed in HEK293 cells Fluor-de-lys as substrate measured after 60 mins by fluorescence assay
[12] = biological target: T4, Protein deacetylase HDAC6; assay: Inhibition of recombinant human His-tagged HDAC6 expressed in baculovirus infected insect cells using Fluor-de-lys as substrate measured after 60 mins by fluorescence assay
[13] = biological target: Histone deacetylase; assay type: cell-based, Homo sapiens; conditions: hela; remark: listed apart in the source
[14] = biological target: T1, Histone deacetylase 8; assay: Inhibition of HDAC8 (unknown origin) using (FAM)-labeled acetylated peptide as substrate measured after 17 hrs by fluorescence assay
[15] = biological target: T2, Polyamine deacetylase HDAC10; assay: Inhibition of HDAC10 (unknown origin) using (FAM)-labeled acetylated peptide as substrate measured after 17 hrs by fluorescence assay
[16] = biological target: T4, Protein deacetylase HDAC6; assay: Inhibition of HDAC6 (unknown origin) using (FAM)-labeled acetylated peptide as substrate measured after 17 hrs by fluorescence assay
[17] = biological target: T6, Histone deacetylase 1; assay: Inhibition of HDAC1 (unknown origin) using (FAM)-labeled acetylated peptide as substrate measured after 17 hrs by fluorescence assay
[18] = biological target: Histone deacetylase 2 (Homo sapiens, UniProt Q92769)
[19] = tested on: RWPE-1; assay: cells; assay type: ADME, cell-based; conditions: Homo sapiens
[20] = tested on: MCF7; assay: cells; assay type: functional, cell-based; conditions: Homo sapiens
[21] = tested on: MDA-MB-231; assay: cells; conditions: Homo sapiens
[22] = tested on: PC-3; assay: cells; assay type: functional, cell-based; conditions: Homo sapiens
[23] = tested on: Vero; assay: cells; assay type: ADME, cell-based; conditions: Chlorocebus sabaeus
[24] = biological target: T1, Histone deacetylase 8; assay: Inhibition of human HDAC8 using ZMTFAL as substrate measured after 90 mins by fluorescence assay
[25] = biological target: Protein deacetylase HDAC6 (Homo sapiens) (UniProt Q9UBN7); assay: Inhibition of human HDAC6 at 100 uM relative to control
[26] = biological target: T6, Histone deacetylase 1; assay: Inhibition of recombinant human FLAG/His-tagged HDAC1 expressed in baculovirus expression system using Boc-l-Lys(Ac)-AMC as substrate preincubated up to 3 hrs and measured after 35 mins by fluorescence assay
[27] = biological target: Histone deacetylase 3/Nuclear receptor corepressor 2 (HDAC3/NCoR2) (Homo sapiens) (UniProt O15379+Q9Y618); assay: Inhibition of human recombinant full length C-terminal His-tagged HDAC3 (1 to 428 residues)/N-terminal GST-tagged NCOR2 (395 to 489 residues) expressed in insect cells using Boc-l-Lys(Ac)-AMC as substrate preincubated up to 3 hrs and measured after 35 mins by fluorescence assay
[28] = tested on: MKN-45; assay: cells; conditions: Homo sapiens
[29] = tested on: A549; assay: cells; conditions: Homo sapiens
[30] = tested on: MCF7; assay: cells; conditions: Homo sapiens

T6 sequence (Q13547 whole entry): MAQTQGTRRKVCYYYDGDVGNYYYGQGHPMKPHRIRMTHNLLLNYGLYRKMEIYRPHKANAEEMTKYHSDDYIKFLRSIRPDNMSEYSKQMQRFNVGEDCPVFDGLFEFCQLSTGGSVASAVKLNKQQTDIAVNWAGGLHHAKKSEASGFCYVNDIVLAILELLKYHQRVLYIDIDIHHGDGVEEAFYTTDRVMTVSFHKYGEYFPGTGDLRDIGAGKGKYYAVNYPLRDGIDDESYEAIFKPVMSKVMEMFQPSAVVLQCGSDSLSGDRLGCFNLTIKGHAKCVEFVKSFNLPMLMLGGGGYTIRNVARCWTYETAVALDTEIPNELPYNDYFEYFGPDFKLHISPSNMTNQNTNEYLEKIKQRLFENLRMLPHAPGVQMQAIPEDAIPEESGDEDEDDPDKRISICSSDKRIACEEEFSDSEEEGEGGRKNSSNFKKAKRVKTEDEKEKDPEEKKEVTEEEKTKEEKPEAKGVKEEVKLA
Sequence of Histone deacetylase 2 (Q92769 whole entry): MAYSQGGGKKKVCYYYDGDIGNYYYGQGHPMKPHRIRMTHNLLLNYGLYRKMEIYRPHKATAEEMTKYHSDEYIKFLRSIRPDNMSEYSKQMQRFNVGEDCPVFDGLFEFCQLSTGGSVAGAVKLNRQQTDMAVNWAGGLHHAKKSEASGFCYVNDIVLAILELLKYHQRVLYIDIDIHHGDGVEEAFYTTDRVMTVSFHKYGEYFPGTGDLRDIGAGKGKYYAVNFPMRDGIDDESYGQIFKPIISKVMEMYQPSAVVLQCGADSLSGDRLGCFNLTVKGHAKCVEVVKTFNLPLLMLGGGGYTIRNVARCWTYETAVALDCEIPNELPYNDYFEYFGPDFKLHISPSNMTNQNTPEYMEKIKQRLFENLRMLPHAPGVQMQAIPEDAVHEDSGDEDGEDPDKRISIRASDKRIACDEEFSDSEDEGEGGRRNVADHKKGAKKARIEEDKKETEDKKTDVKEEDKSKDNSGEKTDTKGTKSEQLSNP
Sequence of Histone deacetylase 5 (Q9UQL6 whole entry): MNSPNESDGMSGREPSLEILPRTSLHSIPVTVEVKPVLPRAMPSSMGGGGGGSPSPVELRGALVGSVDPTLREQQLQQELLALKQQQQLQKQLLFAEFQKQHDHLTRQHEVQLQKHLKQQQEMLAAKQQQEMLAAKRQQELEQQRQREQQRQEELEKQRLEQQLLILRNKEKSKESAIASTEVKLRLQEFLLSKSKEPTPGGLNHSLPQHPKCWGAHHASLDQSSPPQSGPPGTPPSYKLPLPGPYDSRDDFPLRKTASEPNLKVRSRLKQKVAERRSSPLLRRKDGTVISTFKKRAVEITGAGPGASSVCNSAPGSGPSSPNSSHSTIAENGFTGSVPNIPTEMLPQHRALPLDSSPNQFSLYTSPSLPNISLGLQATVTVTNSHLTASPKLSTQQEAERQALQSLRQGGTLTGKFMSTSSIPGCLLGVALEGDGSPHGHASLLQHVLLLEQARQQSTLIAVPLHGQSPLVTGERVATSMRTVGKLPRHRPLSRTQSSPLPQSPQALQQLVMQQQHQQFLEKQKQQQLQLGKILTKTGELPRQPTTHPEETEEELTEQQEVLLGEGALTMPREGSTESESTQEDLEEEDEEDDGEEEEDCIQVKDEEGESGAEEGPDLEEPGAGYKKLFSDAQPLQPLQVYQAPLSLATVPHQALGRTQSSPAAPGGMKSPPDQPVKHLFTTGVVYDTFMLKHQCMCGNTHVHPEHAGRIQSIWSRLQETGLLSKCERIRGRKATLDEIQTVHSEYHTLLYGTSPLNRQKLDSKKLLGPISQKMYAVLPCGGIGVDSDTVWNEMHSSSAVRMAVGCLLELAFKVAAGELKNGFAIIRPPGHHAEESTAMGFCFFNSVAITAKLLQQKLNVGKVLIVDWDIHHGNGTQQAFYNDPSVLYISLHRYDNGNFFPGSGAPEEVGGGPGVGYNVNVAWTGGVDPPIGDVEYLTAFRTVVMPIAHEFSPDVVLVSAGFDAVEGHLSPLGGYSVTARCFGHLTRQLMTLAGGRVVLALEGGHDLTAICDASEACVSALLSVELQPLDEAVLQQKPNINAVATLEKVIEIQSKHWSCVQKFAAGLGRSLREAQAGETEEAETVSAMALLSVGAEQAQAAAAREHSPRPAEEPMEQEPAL
Sequence of Histone deacetylase 4 (P56524 whole entry): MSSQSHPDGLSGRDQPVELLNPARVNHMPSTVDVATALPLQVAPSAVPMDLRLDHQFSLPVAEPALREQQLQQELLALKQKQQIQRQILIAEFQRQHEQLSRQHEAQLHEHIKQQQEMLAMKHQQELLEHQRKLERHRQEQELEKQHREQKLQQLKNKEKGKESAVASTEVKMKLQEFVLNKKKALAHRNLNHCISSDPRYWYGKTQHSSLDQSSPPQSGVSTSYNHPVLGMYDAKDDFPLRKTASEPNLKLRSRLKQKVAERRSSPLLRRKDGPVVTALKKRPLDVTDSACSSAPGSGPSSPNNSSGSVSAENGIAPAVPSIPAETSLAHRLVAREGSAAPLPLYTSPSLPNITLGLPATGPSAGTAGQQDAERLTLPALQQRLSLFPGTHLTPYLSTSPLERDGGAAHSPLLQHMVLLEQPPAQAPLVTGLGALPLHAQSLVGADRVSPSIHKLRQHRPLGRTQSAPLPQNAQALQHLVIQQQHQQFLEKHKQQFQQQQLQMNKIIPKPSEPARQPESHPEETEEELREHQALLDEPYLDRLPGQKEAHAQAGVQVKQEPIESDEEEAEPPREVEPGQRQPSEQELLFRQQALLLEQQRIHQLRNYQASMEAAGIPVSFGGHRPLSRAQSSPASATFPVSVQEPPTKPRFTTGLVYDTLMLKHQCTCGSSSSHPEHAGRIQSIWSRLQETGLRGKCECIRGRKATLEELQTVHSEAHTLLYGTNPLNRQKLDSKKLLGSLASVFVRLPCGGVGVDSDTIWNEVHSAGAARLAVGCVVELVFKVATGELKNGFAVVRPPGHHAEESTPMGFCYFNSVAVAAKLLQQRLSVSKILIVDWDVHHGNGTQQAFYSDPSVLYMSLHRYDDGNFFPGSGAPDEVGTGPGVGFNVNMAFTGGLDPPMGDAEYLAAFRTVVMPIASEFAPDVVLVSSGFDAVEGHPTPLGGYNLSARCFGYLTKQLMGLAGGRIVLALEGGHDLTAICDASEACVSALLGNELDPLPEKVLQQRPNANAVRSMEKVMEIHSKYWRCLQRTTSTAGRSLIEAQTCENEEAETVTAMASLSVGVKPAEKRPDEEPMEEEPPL
Sequence of Histone deacetylase 9 (Q9UKV0 whole entry): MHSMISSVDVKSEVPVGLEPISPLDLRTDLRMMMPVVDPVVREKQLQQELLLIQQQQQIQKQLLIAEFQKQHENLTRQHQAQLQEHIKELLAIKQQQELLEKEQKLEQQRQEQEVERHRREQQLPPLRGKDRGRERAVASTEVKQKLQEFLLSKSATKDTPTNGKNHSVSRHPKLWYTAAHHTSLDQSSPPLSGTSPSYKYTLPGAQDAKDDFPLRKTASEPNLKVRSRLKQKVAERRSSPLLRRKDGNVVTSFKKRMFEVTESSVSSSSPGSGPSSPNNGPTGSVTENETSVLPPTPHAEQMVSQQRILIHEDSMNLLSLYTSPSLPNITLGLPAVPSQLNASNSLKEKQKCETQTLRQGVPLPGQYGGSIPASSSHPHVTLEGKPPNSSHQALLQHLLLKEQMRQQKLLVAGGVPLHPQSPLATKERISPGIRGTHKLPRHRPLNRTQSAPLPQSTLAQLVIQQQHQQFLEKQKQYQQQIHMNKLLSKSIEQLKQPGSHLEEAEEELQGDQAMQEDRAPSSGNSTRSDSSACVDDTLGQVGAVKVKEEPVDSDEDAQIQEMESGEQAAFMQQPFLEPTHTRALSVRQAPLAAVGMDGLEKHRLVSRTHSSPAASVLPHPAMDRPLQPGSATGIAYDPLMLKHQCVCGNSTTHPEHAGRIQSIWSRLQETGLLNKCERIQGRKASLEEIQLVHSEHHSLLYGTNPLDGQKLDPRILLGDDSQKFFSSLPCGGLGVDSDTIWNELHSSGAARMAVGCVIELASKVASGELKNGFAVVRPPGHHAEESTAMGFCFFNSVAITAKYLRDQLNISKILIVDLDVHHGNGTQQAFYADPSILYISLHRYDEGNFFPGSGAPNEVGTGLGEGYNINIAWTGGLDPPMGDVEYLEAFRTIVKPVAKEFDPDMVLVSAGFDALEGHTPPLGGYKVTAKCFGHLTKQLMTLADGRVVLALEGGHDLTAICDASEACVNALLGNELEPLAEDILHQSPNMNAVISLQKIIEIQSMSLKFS

- IC50 [1]: 5.3 µM
- IC50 [2]: > 30 µM
- IC50 [3]: 1.5 µM
- IC50 [4]: 0.036 µM
- IC50 [5]: 25 µM
- IC50 [6]: > 30 µM
- IC50 [7]: 27 µM
- IC50 [8]: > 30 µM
- IC50 [9]: > 30 µM
SMILES: O=C(NO)c1ccc(CN2c3ccccc3C[C@@H]3CCCC[C@H]32)cc1

- IC50 [10]: 0.132 µM
- IC50 [11]: 0.028 µM
- IC50 [12]: 0.107 µM
- IC50 [13]: 0.234 µM
SMILES: CCn1cnc(-c2ccccc2)c1-c1ccc(/C=C/C(=O)NO)cc1

- IC50 [14]: > 30 µM
- IC50 [15]: > 30 µM
- IC50 [16]: > 30 µM
- IC50 [17]: > 30 µM
- IC50 [18]: > 30 µM
SMILES: Nc1ccccc1NC(=O)CCCCCCC(=O)Nc1ccc(-c2cn(Cc3ccccc3)nn2)cc1

SMILES: CC1(C)C(=O)N(c2ccc(C#N)c(C(F)(F)F)c2)C(=O)N1Cc1ccc(-c2cn(CCCCCCC(=O)NO)nn2)cc1
- IC50 [19]: 0.48 µM
- IC50 [20]: 4.24 µM
- IC50 [21]: 1.45 µM
- IC50 [22]: 3.31 µM
- IC50 [23]: 11 µM

- IC50 [24]: 27.6 µM
- inhibition [25]: 30%
SMILES: O=C(NO)c1ccc(NC(=S)N/N=C/c2ccccc2)cc1

- IC50 [24]: 19.7 µM
- inhibition [25]: 23%
SMILES: O=C(NO)c1ccc(NC(=S)N/N=C/c2ccc(F)cc2)cc1

SMILES: CC1(C)C(=O)N(c2ccc(C#N)c(C(F)(F)F)c2)C(=O)N1CCCCc1cn(CCCCCCC(=O)NO)nn1
- IC50 [19]: 12.1 µM
- IC50 [20]: 14.6 µM
- IC50 [21]: > 20 µM
- IC50 [22]: 15.7 µM
- IC50 [23]: > 20 µM

- IC50 [14]: > 30 µM
- IC50 [15]: 2.91 µM
- IC50 [16]: > 30 µM
- IC50 [17]: 2.49 µM
- IC50 [18]: 0.147 µM
SMILES: Nc1cccc(-c2csc(NC(=O)CCCCCCC(=O)Nc3ccccc3N)n2)c1

- inhibition [26]: 21 to 34%
- inhibition [27]: < 12%
SMILES: O=C(Nc1cc(-c2ccccc2)ccc1O)c1c(-c2ccc(O)cc2)sc2cc(O)ccc12

- IC50 [28]: 0.24 µM
- IC50 [29]: 0.56 µM
- IC50 [30]: 0.48 µM
SMILES: CCCCCCC[C@H](OC(=O)[C@@H](CCCCN(O)C=O)NC(=O)c1nc(-c2cc(OC)ccc2O)oc1C)C(C)(C)C(=O)N[C@H]1CCCCN(O)C1=O [AMAMISTATIN A]
